Data taken from US9802885B2, “Substituted cyclohexane compounds” (TAKASAGO INTERNATIONAL CORPORATION (USA), priority 2011, dated 2017).
Entries after “also recorded” stand apart in the source; their conditions may differ.

Tests used:
[1] = Organoleptic properties of the compounds of Formulas I, II and III (Tables 1-3); conditions: in vivo
Source text: For example, the compounds of the presently disclosed subject matter impart cooling, warming, burning, tingling, numbing, salivating, musty, bitter, and/or astringent sensation. In addition, the compounds of the presently disclosed subject matter can impart tropical, fruity (e.g., berry), minty, phenolic, and vegetable (e.g., peppery) notes as well as creaminess and sweetness to flavor ingredients. The organoleptic properties of certain compounds of Formulas I, II, and III are described in Tables 1, 2, and 3, respectively.

[2] = tested on: trained evaluators; experiment: Enhancement of the warming effect of vanillyl butyl ether (VBE), heat intensity and preference (Example 20); format: in vivo
Experimental: Compound 1 was tested for its synergistic enhancement of the warming effect from pungent compound vanillyl butyl ether (VBE). A stock solution of 1% VBE in ethanol was prepared. This stock solution was then added at 0.2% in water to produce a 20 ppm tasting solution (Control). To subsequent 20 ppm tasting solutions was added 2.5 ppm of Compound 1 (Formula G) and 2.5 ppm WS-3 (Formula H). Ten trained evaluators were asked to rate heat intensity in the mouth and rank the three samples for preference after swishing and spitting the sample.

[3] = tested on: trained evaluators; experiment: Rated warming level of hot and spicy flavor composition in water, swish and spit (Example 17); format: in vivo
Experimental: Each evaluator was asked to rate the warming level in the mouth on a scale of 1-9 over a 5 minute period after swishing & spitting the sample.

[4] = generally known; cited from earlier work
[5] = tested on: expertly trained evaluators; experiment: Tasting of mouthwatering composition in water (Example 19); format: in vivo; conditions: 0.5% w/w Compound 10, 0.05% in water (2.5 ppm)
[6] = tested on: expertly trained evaluators; experiment: Rated cooling intensity of mouth-rinse composition (Example 21); format: in vivo
Experimental: Compound 8 was tested in the following mouth-rinse composition Formula J and evaluated over a 20 minute period by five expertly trained evaluators, compared to two other mint flavor compositions, a Control and Formula K that contains WS-3 as shown below. The compositions were each dissolved at 0.1% in the following mouth-rinse base (50 ppm dosage of Compound 8 & WS-3 respectively). The evaluators were asked to rate cooling intensity on a scale of 1-9 in the mouth at 0, 0.5, 1, 5, 10, and 20 minutes.

[7] = tested on: trained evaluators; experiment: Tasting of wasabi-type flavor composition in water (Example 18); format: in vivo
Source text: Formula C was selected as being preferred by 7 out of the 8 evaluators.

Structure (SMILES)	Organoleptic Properties [1]	further results
C=C(C)[C@@H]1CC[C@@H](C)C[C@H]1C(=O)NC(C)C [Compound 3, (1R,2R,5R)—N-isopropyl-5-methyl-2-(prop-1-en-2-yl)cyclohexanecarboxamide]	slight cooling	–
C=C(C)[C@@H]1CC[C@@H](C)C[C@H]1OCC(=O)O [Compound 14, (1R,2S,5R)-2-((5-methyl-2-(prop-1-en-2-yl)cyclohexyl)oxy)acetic acid]	creamy; also recorded: fruity,	–
C=C(C)[C@@H]1CC[C@@H](C)C[C@H]1C(=O)NC(C)(C)C [Compound 4, (1R,2R,5R)—N-(tert-butyl)-5-methyl-2-(prop-1-en-2-yl)cyclohexanecarboxamide]	slight burn, warming,; also recorded: irritation	–
C=C(C)[C@@H]1CC[C@@H](C)C[C@H]1C(=O)NCC [Compound 1, (1R,2R,5R)—N-ethyl-5-methyl-2-(prop-1-en-2-yl)cyclohexanecarboxamide]	cooling, tingling, and numbing sensation	enhancement of the warming effect of pungent compounds compared to WS-3 [2]: enhances the warming effect of pungent compounds much better; heat/warming perception compared to control Formula B ([3]; 0.5% w/w Compound 1): enhance the initial heat perception; heat/warming perception compared to control Formula B ([3]; 0.5% w/w Compound 1, listed as N-ethyl-5-methyl-2-(prop-1-en-2-yl)cyclohexanecarboxamide): enhances the warming perception
C=C(C)[C@@H]1CC[C@@H](C)C[C@H]1OC(=O)C(C)O (stereo partly drawn) [Compound 11, (1R,2S,5R)-5-methyl-2-(prop-1-en-2-yl)cyclohexyl 2-hydroxypropanoate]	minty, bitter, cooling	–
C=C(C)[C@@H]1CC[C@@H](C)C[C@H]1OC(=O)CC(C)O (stereo partly drawn) [Compound 13, (1R,2S,5R)-5-methyl-2-(prop-1-en-2-yl)cyclohexyl 3-hydroxybutanoate]	bitter, mild peppery	–
C=C(C)[C@@H]1CC[C@@H](C)C[C@H]1OC(=O)CC(C)=O [Compound 12, (1R,2S,5R)-5-methyl-2-(prop-1-en-2-yl)cyclohexyl 3-oxobutanoate]	bitter, fruity	–
C=C(C)[C@@H]1CC[C@@H](C)C[C@H]1C(=O)NC1CC1 [Compound 2, (1R,2R,5R)—N-cyclopropyl-5-methyl-2-(prop-1-en-2-yl)cyclohexanecarboxamide]	slight cooling, salivating	–
C=C(C)[C@@H]1CC[C@@H](C)C[C@H]1C(=O)Nc1ccc(OC)cc1 [Compound 7, (1R,2R,5R)—N-(4-methoxyphenyl)-5-methyl-2-(prop-1-en-2-yl)cyclohexanecarboxamide]	musty, astringent, slight cooling	–
C=C(C)[C@@H]1CC[C@@H](C)C[C@H]1OCC(=O)NCC(C)C [Compound 15, (1R,2S,5R)—N-isobutyl-2-((5-methyl-2-(prop-1-en-2-yl)cyclohexyl)oxy)acetamide]	bitter,; also recorded: tingle/; also recorded: burning	–
CCNC(=O)C1CC(C)CCC1C(C)C (centres unmarked) [WS-3, N-ethyl-5-methyl-2-isopropylcyclohexanecarboxamide]	–	sensation provided by menthyl analog [4]: clean cool
C=C(C)[C@@H]1CC[C@@H](C)C[C@H]1OC(=O)CCCC(=O)O [Compound 10, (1R,2S,5R)-5-((−5-methyl-2-(prop-1-en-2-yl)cyclohexyl)oxy)-5-oxopentanoic acid]	sweet, fruity, slight; also recorded: cooling	mouthwatering effect compared to control Formula F [5]: extended cooling and increased astringency
C=C(C)[C@@H]1CC[C@@H](C)C[C@H]1C(=O)NCC(=O)OCC [Compound 6, (1R,2R,5R)-ethyl 2-(5-methyl-2-(prop-1-en-2-yl)cyclohexanecarboxamido)acetate]	bitter, cooling, irritation	–
C=C(C)[C@@H]1CC[C@@H](C)C[C@H]1C(=O)Nc1ccc(CC#N)cc1 [Compound 8, (1R,2R,5R)—N-(4-(cyanomethyl)phenyl)-5-methyl-2-(prop-1-en-2-yl)cyclohexanecarboxamide]	phenolic, strong burning	cooling perception of the mouth-rinse composition compared to Control and WS-3 (Formula K) [6]: enhances and lengthens the cooling of a mouth-rinse composition better than WS-3; burning sensation and character compared to control Formula D ([7]; 0.5% w/w Compound 8): more intense and lingering burning sensation; burning sensation and character compared to control Formula D ([7]; 0.5% w/w Compound 8, listed as N-(4-(cyanomethyl)phenyl)-5-methyl-2-(prop-1-en-2-yl)cyclohexanecarboxamide): improved lingering burning sensation
C=C(C)[C@@H]1CC[C@@H](C)C[C@H]1OC(=O)CCC(=O)O [Compound 9, (1R,2S,5R)-4-((−5-methyl-2-(prop-1-en-2-yl)cyclohexyl)oxy)-4-oxobutanoic acid]	fruity, chemical, slight; also recorded: cooling/burn	–
C=C(C)[C@@H]1CC[C@@H](C)C[C@H]1C(=O)NC(C)CC (stereo partly drawn) [Compound 5, (1R,2R,5R)—N-(sec-butyl)-5-methyl-2-(prop-1-en-2-yl)cyclohexanecarboxamide]	bitter, cooling	–
